From paper doi:10.1101/2023.06.29.547052v1 (biorxiv, 2023)

Target: BSA (Bos taurus, UniProt P02769)
Test: biochemical

BSA, sequence (P02769 25-607): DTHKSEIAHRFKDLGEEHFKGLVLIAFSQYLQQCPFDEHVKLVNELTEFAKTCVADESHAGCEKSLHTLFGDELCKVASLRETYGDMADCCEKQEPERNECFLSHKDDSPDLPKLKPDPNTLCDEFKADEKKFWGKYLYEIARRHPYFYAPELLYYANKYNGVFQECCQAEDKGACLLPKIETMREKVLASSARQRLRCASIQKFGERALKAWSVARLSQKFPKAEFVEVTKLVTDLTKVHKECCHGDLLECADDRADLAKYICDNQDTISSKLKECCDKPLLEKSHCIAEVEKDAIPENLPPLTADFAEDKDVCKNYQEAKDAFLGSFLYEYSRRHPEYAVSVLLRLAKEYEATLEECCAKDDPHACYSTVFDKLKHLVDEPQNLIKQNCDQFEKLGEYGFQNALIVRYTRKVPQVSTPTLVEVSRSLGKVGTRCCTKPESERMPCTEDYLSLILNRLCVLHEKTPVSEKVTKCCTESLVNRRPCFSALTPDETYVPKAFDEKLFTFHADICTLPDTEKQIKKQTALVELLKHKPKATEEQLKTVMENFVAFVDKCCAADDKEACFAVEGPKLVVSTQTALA

Kd: 1780 ± 20 nM
SMILES: C=CC1=C(C)C2=Cc3c(C=C)c(C)c4[n]3[Fe]([Cl])[n]3c(c(C)c(CCC(=O)O)c3=CC3=NC(=C4)C(C)=C3CCC(=O)O)=CC1=N2 [hemin]
